Laboratory results published in patent US10106551B2, “Monothiol mucolytic agents” (PARION SCIENCES, INC., priority 2015, dated 2018).

Assays:
[1] = DTNB assay: rate of S-S bond reduction; format: biochemical; conditions: 22.5 μM reducing agent, 45 μM DTNB, 50 mM Tris-HCl
Description: Thiol-containing compounds, such as the monothiol mucolytic agents described in this patent, can react with DTNB (5,5-Dithiobis(2-nitrobenzoic acid)) resulting in the cleavage of its single S—S bond. The DTNB assay serves a dual purpose in our analysis of monothiol compounds, as it can (1) be used to determine the “active concentration” of the mucolytic compounds (what amount of the compound in a reaction is able to cleave S—S bonds) and (2) to assess the rate that the compound can cleave S—S bonds. When cleaved, the resulting compound, NTB (2-nitro-5-thiobenzoate), is a colored product that is measured spectrophotometrically at an absorbance of 412 nm (Abs412). Using the molar extinction coefficient of NTB and measured maximum Abs412, the molar amount of DTNB that reacted with our mucolytic agents can be calculated. Monothiol mucolytic compounds react at a 1:1 stoichiometric ratio with DTNB (i.e. 1 mole of NTB is produced when 1 mole of DTNB is reacted with 1 mole of a monothiol reducing agent). To define the activity concentration of a compound, a final concentration of 22.5 μM mucolytic reducing agent was combined with an excess of DTNB (100 μM) in 1 mL 50 mM Tris-HCl buffer (pH 7.5). Maximum Abs412 was measured and then utilized to calculate the activity concentration. If observed activity concentrations differed from expected activity concentrations by more than 5%, the amount of the compound added to each reaction was accordingly adjusted to kinetically test the reducing rate in the next step. To determine rate of mucolytic reducing activity, 22.5 μM active reducing agent is combined with 45 μM DTNB in 1 mL 50 mM Tris-HCl buffer over a pH range (6.0-7.5). Abs412 is recorded in real time upon addition of the compound and rates were calculated using 2nd order kinetic parameters.

Muc5B [2] = molecular target: T1, Muc5B (Homo sapiens, UniProt Q9HC84); assay: Mucin agarose gel western blot (saliva / mucus samples); format: biochemical; conditions: for MUC5B reduction: human mucus samples; for reducing capacity relative to 76 (Muc5B): FIG. 3
T1 construct: Various mucin-containing substrates (e.g. saliva, harvested HBE mucus, and disease sputum) treated with our monothiol mucolytic compounds; from tissue; host or cells: saliva; harvested HBE mucus; disease sputum
Method: (§1) Various mucin-containing substrates (e.g. saliva, harvested HBE mucus, and disease sputum) treated with our monothiol mucolytic compounds are quenched upon completion of the treatment period with a 10-fold excess of N-ethylmaleimide in order to alkylate any remaining active compound and to prevent further mucin reduction. A 10× concentrated sample loading buffer is diluted into each sample (1×TAE/5% glycerol/0.1% SDS/Bromophenol Blue). Samples ([…]) were analyzed by electrophoresis on 0.9% agarose gels using a buffer system consisting of 1×TAE/0.1% SDS. The agarose gel was soaked for 15 min in 4×SSC (0.6 M NaCl, 60 mM Tri-sodium citrate dehydrate) containing 10 mM DTT before transferring the samples from the gel onto a nitrocellulose membrane by vacuum blotter. Unreduced and reduced Muc5B were visualized on a LiCor Odyssey imaging detection system using a polyclonal antibody directed towards Muc5B.

[3] = Pro-Drug DTNB assay with or without esterase; format: biochemical; conditions: for Reduction Without Esterase / Reduction With Esterase: 22.5 μM prodrug, 100 μM DTNB; for Reduction Without Esterase: pH 7.5, no enzyme; for Reduction With Esterase: pH 7.5, porcine liver esterase
Method: The present invention provides a series of mucolytic pro-drugs (see R^6=other than H) that are activated by common enzymes that are present in the extracellular milieu (e.g., nucelotidases, phosphatases, and esterases). As a proof-of-concept, the reducing kinetics of the pro-drug compound 46 in the presence or absence of an activating esterase were tested.
This assay was designed to determine whether prodrug caps added on to our monothiol mucolytic compounds can be cleaved from the molecule. If so, the outcome would be an “active” compound that is able to reduce the S—S bond in DTNB. Similar to the activity concentration version of the DTNB assay described above, monothiol prodrugs were mixed at a final concentration of 22.5 μM with excess DTNB (100 μM final) in 1 mL 50 mM Tris-HCl buffer (pH 7.5) and maximum Abs412 was measured. In the absence of a purified hydrolytic enzyme (e.g. porcine liver esterase; Sigma), the amount of DTNB cleavage observed is an indicator for stability of the cap on the prodrug compound (i.e. if the prodrug remains intact in solution the Abs412=0). Next, 5 uL of esterase (bought as an ammonium sulfate suspension that is subsequently centrifuged to isolate the esterase and then dissolved in reaction buffer prior to assaying) is combined with excess DTNB (100 μM final) and 22.5 μM pro-drug in 1 mL 50 mM Tris-HCl buffer (pH 7.5). Cleavage of the prodrug cap can be visualized in real time via DTNB cleavage at Abs412 by the esterase-liberated monothiol molecule.

IL-8 = IL-8 Secretion from primary HBEs (ELISA); format: cell-based, human; conditions: FIG. 6B; 10 mM, apical surface of HBE cells, 24 hours
Method: Reducing agents were made up in 50 mM Tris-HCl buffered to pH 7.5. Each compound solution (15 μL of 10 mM compound) was added to the apical surface of primary HBEs.
IL-8 secretion was measured from the basolateral HBE media 24 hours post-dose using a ThermoScientific human IL-8 ELISA kit. Samples were diluted 1:50 and then 50 μL of each dilution was added to the ELISA plate. The samples were completed in duplicate following standard reaction conditions as outlined in the kit manual. Absorbance was measured at 450 nm. A standard curve, generated from standards with known amounts of human IL-8, was used to calculate IL-8 amounts in the unknown samples. Supernatant from mucopurlent matters (SMM) purified from cystic fibrosis sputum was used as a positive control for IL-8 secretion.

[4] = Parallel Artificial Membrane Permeability (PAMPA) Assay; format: in vitro ADME; conditions: FIG. 5; 5 hours, room temperature
Method: This assay measures the permeability of small molecules across an artificial phospholipid membrane to help predict in vivo drug permeability. First, 500 μM stock solutions were made up in PBS and tested by the DTNB assay (described above) to determine compound activity concentrations. Next, 300 μL of the 500 μM compound stock solution and 200 uL PBS were added per well to the donor and acceptor plates, respectively (BD Gentest™ Pre-Coated PAMPA Plate System). The acceptor plate was then placed on top of the donor plate and allowed to incubate at room temperature for 5 hours. After incubation, the donor and acceptor plates were separated. For each reaction, samples were taken from both the acceptor and donor plates and were combined with DTNB prior to reading spectrophotometrically (maximum Abs412). For prodrug samples, 1 μL of purified esterase (porcine liver esterase; Sigma) was added per well and the samples were incubated at room temperature for 5 minutes to allow for cleavage of the pro-drug cap prior to addition of DTNB. Using the concentrations of compound identified in both the donor and acceptor plates for each sample, a compound permeability parameter was calculated following equations outlined in the BD Gentest™ Pre-Coated PAMPA Plate System Manual.

Muc5B [5] = molecular target: T1, Muc5B; assay: Muc5b reduction in COPD sputum, agarose gel western blot; format: biochemical; conditions: FIG. 8; spontaneously induced sputum from a patient with COPD
Method: as §1
An important aspect of mucolytic pro-drugs is that they must be activated in mucus on the lung surface.

[6] = system: mucus on primary human bronchial epithelial (HBE) cultures; assay: Mucus reduction on primary human bronchial epithelial (HBE) cultures, western blot; format: cell-based; conditions: FIG. 9; added to apical surface of HBE cultures
Method: as §1
Mucin reduction kinetics were assessed by western blot at the indicated times post-addition of mucolytic agents to the apical surface of HBE cultures.

Compound: Cl.OC[C@@H](O)[C@@H](O)[C@H](O)[C@@H](O)CN(CCOc1cccc(CS)c1)C[C@H](O)[C@@H](O)[C@H](O)[C@H](O)CO [Compound 19, (2R,2′R,3R,3′R,4R,4′R,5S,5′S)-6,6′-((2-(3-(mercaptomethyl)phenoxy)ethyl)azanediyl)bis(hexane-1,2,3,4,5-pentaol) Hydrochloride]
- DTNB reduction rate ([1]; pH 6): 182.52 M⁻¹ s⁻¹

Compound: Cl.OC[C@@H](O)[C@@H](O)[C@H](O)[C@H](O)CN(CCOc1cccc(CS)c1)C[C@@H](O)[C@@H](O)[C@H](O)[C@H](O)CO [Compound 20, (2R,2′R,3R,3′R,4R,4′R,5R,5′R)-6,6′-((2-(3-(mercaptomethyl)phenoxy)ethyl)azanediyl)bis(hexane-1,2,3,4,5-pentaol) Hydrochloride]
- DTNB reduction rate ([1]; pH 6): 307.08 M⁻¹ s⁻¹

Compound: CC(=O)SCc1ccc(OCCCCCCN(C[C@H](O)[C@@H](O)[C@H](O)[C@H](O)CO)C[C@H](O)[C@@H](O)[C@H](O)[C@H](O)CO)cc1.Cl [Compound 46, S-4-((6-(bis((2S,3R,4R,5R)-2,3,4,5,6-pentahydroxyhexyl)amino)hexyl)oxy)benzyl Ethanethioate Hydrochloride]
- MUC5B reduction (Muc5B [2]): reduce MUC5B
- Reduction Without Esterase [3]: No
- Reduction With Esterase [3]: Yes
- reduction of disulfide bonds by pro-drug alone ([3]; absence of activating esterase): does not reduce disulfide
- reaction rates on addition of activating enzyme ([3]; presence of activating esterase): concentration dependent increase in reaction rates

Compound: Cl.OC[C@@H](O)[C@@H](O)[C@H](O)[C@@H](O)CN(CCCCCCOc1ccc(CS)cc1)C[C@H](O)[C@@H](O)[C@H](O)[C@H](O)CO [Compound 47, (2R,2′R,3R,3′R,4R,4′R,5S,5′S)-6,6′-((6-(4-(mercaptomethyl)phenoxy)hexyl)azanediyl)bis(hexane-1,2,3,4,5-pentaol) Hydrochloride]
- DTNB reduction rate ([1]; pH 6): 211.3 M⁻¹ s⁻¹
- reducing capacity relative to 76 (Muc5B) (Muc5B [2]): retain the reducing capacity of 76
- MUC5B reduction (Muc5B [2]): reduce MUC5B
- time to fully reduce all available disulfides ([3]; parent molecule, same conditions as pro-drug test): < 10 s

Compound: NCCCCCCOc1ccc(CS)cc1 [Compound 48]
- DTNB reduction rate ([1]; pH 6): 190.8 M⁻¹ s⁻¹

Compound: Cl.OC[C@@H](O)[C@@H](O)[C@H](O)[C@H](O)CN(CCOc1ccc(CS)cc1)C[C@@H](O)[C@@H](O)[C@H](O)[C@H](O)CO [Compound 58, (2R,2′R,3R,3′R,4R,4′R,5R,5′R)-6,6′-((2-(4-(mercaptomethyl)phenoxy)ethyl)azanediyl)bis(hexane-1,2,3,4,5-pentaol) Hydrochloride]
- DTNB reduction rate ([1]; pH 6): 258.31 M⁻¹ s⁻¹

Compound: NCCCC[C@@H](N)C(=O)NCCOc1ccc(CS)cc1 [Compound 69, (R)-2,6-diamino-N-(2-(4-(mercaptomethyl)phenoxy)ethyl)hexanamide]
- DTNB reduction rate ([1]; pH 6): 485.93 M⁻¹ s⁻¹
- reducing capacity relative to 76 (Muc5B) (Muc5B [2]): retain the reducing capacity of 76
- IL-8 secretion (IL-8): did increase IL-8 secretion

Compound: CC(=O)SCc1ccc(OCCN)cc1.Cl [Compound 76, S-4-(2-aminoethoxy)benzyl ethanethioate hydrochloride]
- DTNB reduction rate ([1]; pH 6): 253.2 M⁻¹ s⁻¹
- DTNB reduction rate ([1]; pH 6.5): 654.24 M⁻¹ s⁻¹
- DTNB reduction rate ([1]; pH 7): 1499 M⁻¹ s⁻¹
- DTNB reduction rate ([1]; pH 7.5): 4633.8 M⁻¹ s⁻¹
- Muc5b reduction relative to NAC (Muc5B [2]; FIG. 2, 10 mM, 5-fold lower concentration than NAC): greater Muc5b reduction relative to NAC
- reduction of salivary Muc5b compared to NAC (Muc5B [2]; FIG. 2, equimolar concentrations relative to NAC (50 mM)): significantly faster and more complete reduction
- membrane permeability (PAMPA) [4]: membrane permeable
- IL-8 secretion (IL-8): did not increase IL-8 secretion

Compound: CC(=O)SCc1ccc(OCCN(C[C@H](O)[C@@H](O)[C@H](O)[C@H](O)CO)C[C@H](O)[C@@H](O)[C@H](O)[C@H](O)CO)cc1 [Compound 85, S-4-(2-(bis((2S,3R,4R,5R)-2,3,4,5,6-pentahydroxyhexyl)amino)ethoxy)benzyl Ethanethioate]
- Muc5b reduction in sputum (Muc5B [5]): reduces the Muc5b, but with a delayed kinetic relative to 86
- duration of mucus reduction [6]: potentially longer duration of action
- mucin reduction kinetics [6]: slower reduction kinetics
- membrane permeability (PAMPA) [4]: poor membrane permeability
- Reduction Without Esterase [3]: No
- Reduction With Esterase [3]: Yes
- DTNB cleavage without esterase ([3]; FIG. 7 middle panel): does not cleave DTNB
- DTNB cleavage after addition of an esterase ([3]; FIG. 7 right-hand panel): metabolically converts 85 to 86, allowing it to hydrolyze DTNB

Compound: CO[C@@H]1OC(CS)[C@H](O)C(O)C1O (stereo partly drawn) [compound 95, reference compound]
- Muc5b reduction (Muc5B [2]; FIG. 4, 30 mM): partial Muc5b reduction
